Results as given in patent US7582677B2, “Lignan formulations” (Hormos Medical Corp., priority 2002, dated 2009).

tested on: microsomal lipids; test: Inhibition of lipid peroxidation (microsomal lipids, tert-butylhydroperoxide initiated, chemiluminescence detection); format: biochemical; conditions: peroxidation of microsomal lipids initiated by tert-butylhydroperoxide
Source text: In this model, lignan compounds were compared to the well known, potent antioxidant Trolox, which is a water-soluble derivative of vitamin E.

Row | Compound | IC50
1 | COc1cc(C[C@H]2C(=O)OC[C@@H]2[C@H](O)c2ccc(O)c(OC)c2)ccc1O [Hydroxymatairesinol (HMR), Hydroxymatairesinol] | 0.06 µM
2 | COc1cc(C[C@H]2CO[C@H](c3ccc(O)c(OC)c3)[C@H]2CO)ccc1O [Lariciresinol] | 0.07 µM
3 | HMR-butyrate | 0.1 µM
4 | HMR-benzoate | 0.12 µM
5 | CCCC(=O)Oc1ccc(C[C@H]2COC(=O)[C@@H]2Cc2ccc(OC(=O)CCC)c(OC)c2)cc1OC [Matairesinoibutyrate] | 0.35 µM

Continued, values first:

Row | IC50 | Compound
6 | 0.09 µM | COc1cc(C[C@@H](CO)[C@H](CO)Cc2ccc(O)c(OC)c2)ccc1O [Secoisolariciresinol]
7 | 0.22 µM | Cc1c(C)c2c(c(C)c1O)CCC(C)(C(=O)O)O2 (centres unmarked) [Trolox, reference compound]
8 | 0.054 µM | COc1cc(C[C@H]2COC(=O)[C@@H]2Cc2ccc(O)c(OC)c2)ccc1O [Matairesinol]
9 | 0.067 µM | α-Conidendrin
10 | 0.15 µM | COc1cc(CC2COC(=O)C2(O)Cc2ccc(O)c(OC)c2)ccc1O (centres unmarked) [Nortrachelogenin]
11 | 0.11 µM | COc1cc(CC2C(=O)OCC2C(=O)c2ccc(O)c(OC)c2)ccc1O (centres unmarked) [Oxomatairesinol]
